Experimental findings from ChEMBL document CHEMBL1155523, “Synthesis and biological activity of alpha-L-fucosyl ceramides, analogues of the potent agonist, alpha-D-galactosyl ceramide KRN7000” (2010) are described below.

This assay has as its system iNKT. Put plainly: Effect on immune response in human iNKT cells stimulated by antigen-presenting CD1d assessed as cellular expansion at 250 nM after 8 days by FACSCalibur flow cytometry relative to control. It counts as functional. (In general: A flow cytometer gives signals particle by particle.)
For `CCCCCCCCCCCCCCCCCCCCCCCCCC(=O)N[C@@H](CO[C@@H]1O[C@@H](C)[C@@H](O)[C@H](O)[C@@H]1O)[C@H](O)[C@H](O)CCCCCCCCCCCCCC`, the Activity turned out to be 12%.
In the case of `CCCCC/C=C\C/C=C\CCCCCCCCCC(=O)N[C@@H](CO[C@@H]1O[C@@H](C)[C@@H](O)[C@H](O)[C@@H]1O)[C@H](O)[C@H](O)CCCCCCCCCCCCCC` it was 0.56%; in that of `CCCCCCCCCCCCCCCCC(O)C(=O)N[C@@H](CO[C@@H]1O[C@@H](C)[C@@H](O)[C@H](O)[C@@H]1O)[C@H](O)[C@H](O)CCCCCCCCCCCCCC` (stereo not given in full), 2.9%; in that of `CCCCCCCCCCCCCCCCCCCCCCCC(=O)N[C@@H](CO[C@@H]1O[C@@H](C)[C@@H](O)[C@H](O)[C@@H]1O)[C@H](O)[C@H](O)CCCCCCCCCCCCCC`, 1.1%.
For `CCCCCCCCCCCCCCCCCCCCCCCCCC(=O)N[C@@H](CO[C@H]1O[C@H](CO)[C@H](O)[C@H](O)[C@H]1O)[C@H](O)[C@H](O)CCCCCCCCCCCCCC` [RGI-7000], the Activity is listed as 26%.
